US20240139125A1 (INDUSTRIAL COOPERATION FOUNDATION JEONBUK NATIONAL …, priority 2020, published 2024)

Tests used:
[1] = Cell viability for BIA and analogues, HT1080 cell line; assay type: cell-based; details: human, HT1080 fibrosarcoma cells; for viability at 5 µM: HT1080, 5 uM; for viability at 10 µM: HT1080, 10 uM
Method: HT1080 MDA-MB-231, SKBR3 and MCF7 cell lines were cultured in a 37° C., 5% CO2 incubator in a medium with 10% Fetal Bovine Serum, 1% penicillin and streptomycin (100 U) added to DMEM.
(§1) The compound prepared in Example 15 was treated with HT1080 fibrosarcoma cell line at 5 μM and 10 μM and cell viability was measured. In addition, the compound prepared in Example 15 on the DU145 prostate cancer cell line was treated with 10 μM, 20 μM, and 30 μM and cell viability was measured (see Table 2, Table 3).

[2] = Cell viability for BIA and analogues, DU145 cell line; assay type: cell-based; details: human; for viability at 10 µM: DU145, 10 uM; for viability at 20 µM: DU145, 20 uM; for viability: DU145, 50 rpm
Method: as §1

[3] = system: AKT serine phosphorylation (S473); assay: AKT phosphorylation by Western blotting; assay type: cell-based; details: BIA analogues, 10 μM
Method: This is AKT signaling key to cancer cell growth, and BIA and its analogues tend to inhibit it. Only representative experimental results were presented. Data were expressed as mean±SD. After one-way ANOVA, Tukey's post hoc test is conducted.
After cell recovery, cell lytic buffer (10 mM Tris-Cl (pH 7.4), 5 mM EDTA, 130 mM NaCl, 1% Triton X-100) and protease inhibitor mix protease inhibitor cocktail (protease inhibitor cocktail and phosphatase inhibitor cocktail) were added and left at 4° C. for 30 minutes. After breaking the cells with ultrasound, they were centrifuged at 13,000× g at 4° C. for 30 minutes, and then the supernatant was taken, and the concentration was quantified using a protein quantification kit (Bio-Rad Laboratories, Hercules, CA, USA). 20 ug of the obtained protein was electrophoresis with polyacrylamide gel electrophoresis (SDS-PAGE) followed by electrotransfer to PVDF membrane (Bio-Rad). The membrane was blocked at room temperature for 1 hour with a TBS-T solution (20 mM Tris (pH 7.5), 137 mM NaCl, 0.05% Triton X-100) containing 5% skim milk. Then, after switching to a solution containing the primary antibody, it was reacted at 4° C. The membrane after the reaction was washed three times with TBS-T solution, reacted with a secondary antibody, and then luminesced using an ECL kit and autoradiography. […]

SARS-CoV2 virus = assay: MTT cell viability of Vero E6 cells infected with SARS-CoV2; assay type: cell-based; details: Severe acute respiratory syndrome coronavirus 2, Vero C1008, 24 h, Vero E6, SARS-CoV2 0.1 MOI, 500 nM, 24 hours after treatment; control DMSO-S 66.52±2.28%
Method: Vero E6 cells, monkey kidney cell masters, were dispensed at 1×10^4 cells/well per well in 96 well plates and incubated at 37° C., 5% CO2 incubators for 24 hours. SARS-CoV2 to infect Vero E6 cells was S ARS-CoV 43326 distributed from the National Pathogen Resource Bank, and DMEM (2% FBS, 1% antibiotic-antimycotic) medium was dispensed at 100 μL/well to infect 0.1 MOI. For 1 hour The virus was removed after 1 hour of infection in a 37° C., 5% CO2 incubator.
Next, samples prepared so that BIA or analogue compounds were finally 500 nM were dispensed 100 μL/well, including the culture medium, and then treated in a 37° C., 5% CO2 incubator for 24 hours. In the same way, the group treated with 2 μM, 5 μM, or 10 μM of Remdesivir (Rem) was a positive control.
Check the condition of the cells, add 100 μL/well of 0.5 mg/ml MTT solution, react in a 37° C., 5% CO2 incubator for 4 hours, wash out the media, and DMSO to the cells by 100 μL/well After sufficient dissolution, absorbance was measured at 540 nm with a plate reader to evaluate cell viability.
To confirm the possibility of viral prevention and therapeutic effects of BIA and its analogue compounds, 500 nM treatment of BIA analogue at the same time as viral infection, and then MTT assay whether the viability of cells against viral infection is improved after 24 hours. The results confirmed are shown in the graph of FIG. 82.

BI-1 (TMBIM6) = assay: TMBIM6-GCaMP3 fluorescence, calcium released through BI-1; assay type: cell-based; details: 10 μM, compared with DMSO control
BAL inflammatory cells = assay: Aspergillus-infected asthmatic mouse model, BAL cells and lung histology; assay type: in vivo; details: asthma-inducing group; BIA 0.1 mg/kg and 0.01 mg/kg, IC87114 1 mg/kg, intratracheal
Excerpt: FIG. 80A and FIG. 80B show mice that were infected with aspergillus with or without BIA, or IC87114, fixing the tissue to 4% formalin, injecting paraffin to make blocks, and then cutting into 4 μm thick to react to buffer and performing hematoxylin-eosin staining. The observation result (A) and the observation result (B) by PAS staining are shown.
The result is quantified by counting the total number of cells of living BAL fluid, excluding dead cells stained in trypan blue.
A. fumigatus-induced allergic pulmonary inflammation To establish the model, mice were treated with 10 μg of A. fumigatus crude antigen extract (Greer Laboratories, Cat # XPM3D3A4, Lenoir, NC, USA) with fungal substance inactivated. 0.2 ml of incomplete Freund's adjuvant (Sigma-Aldrich, Cat # F5506-6X) in regular saline It was dissolved and mixed, and half of the preparation was deposited in the peritoneal cavity and the rest was delivered subcutaneously. After 2 weeks, mice received 20 μg of A. fumigatus antigen dissolved in normal saline through the intranasal route, after an intranasal attack After 4 days, 20 μg of A. Fumigatus antigen dissolved in normal saline was treated via the endotracheal route. Control mice were administered only saline at the same time point in time through the same route and treated with the same number of conidia. […]

Compound	viability at 5 µM [1]	viability at 10 µM [1]	viability at 10 µM [2]	viability at 20 µM [2]	viability [2]	AKT serine phosphorylation [3]	viability at 0.5 µM (SARS-CoV2 virus)	inhibition of calcium release through BI-1 (TMBIM6-GCaMP3 fluorescence) (BI-1 (TMBIM6))	all BAL inflammatory cells (BAL inflammatory cells)
O=C(/C=C/c1cccc([N+](=O)[O-])c1)c1ccccc1 [GM-90128, (E)-3-(3-nitrophenyl)-1-phenylprop-2-en-1-one]	102%	57.8%	81%	72.2%	62.2%	inhibited	–	–	–
Nc1ccccc1C(=O)/C=C/c1cccc([N+](=O)[O-])c1 [GM-90129, (E)-1-(2-aminophenyl)-3-(3-nitrophenyl)prop-2-en-1-one]	–	–	91.4%	90.2%	61.4%	–	77.7 ± 3.6%	–	–
Nc1ccccc1C(=O)/C=C/c1ccncc1 [GM-90228, (E)-1-(2-aminophenyl)-3-(pyridin-4-yl)prop-2-en-1-one]	30.4%	22.8%	54.1%	37.8%	15.1%	–	74.3 ± 3.43%	–	–
COc1cc(N)c(C(=O)/C=C/c2cccc([N+](=O)[O-])c2)cc1OC [GM-90254, (E)-1-(2-amino-4,5-dimethoxyphenyl)-3-(3-nitrophenyl)prop-2-en-1-one]	14.7%	8.59%	61.1%	31.5%	8.51%	–	–	stronger inhibitory effect	–
CCOc1cccc(/C=C/C(=O)c2ccccc2N)c1 [GM-90295, (E)-1-(2-aminophenyl)-3-(3-ethoxyphenyl)prop-2-en-1-one]	103%	82.4%	91.7%	86.7%	84.7%	–	–	stronger inhibitory effect	–
Nc1ccccc1C(=O)/C=C/c1cccc(C(=O)O)c1 [GM-90296, (E)-3-(3-(2-aminophenyl)-3-oxoprop-1-en-1-yl)benzoic acid]	107%	91.6%	91%	82.3%	76.9%	–	–	stronger inhibitory effect	–
Nc1ccc(F)cc1C(=O)/C=C/c1cccc([N+](=O)[O-])c1 [GM-90298, (E)-1-(2-amino-5-fluorophenyl)-3-(3-nitrophenyl)prop-2-en-1-one]	21.2%	19%	68.9%	62.3%	48.7%	–	–	stronger inhibitory effect	–
CC(C)(C)OC(=O)Nc1cccc(/C=C/C(=O)c2ccccc2N)c1 [GM-90299, tert-butyl (E)-(3-(3-(2-aminophenyl)-3-oxoprop-1-en-1-yl)phenyl) carbamate]	93.2%	20.1%	82.2%	59%	17.2%	–	–	stronger inhibitory effect	–
Nc1ccccc1C(=O)/C=C/c1cccc(F)c1 [GM-90318, (E)-1-(2-aminophenyl)-3-(3-fluorophenyl)prop-2-en-1-one]	21.4%	11.8%	–	–	–	–	–	stronger inhibitory effect	–
N/C(=N\O)c1cccc(/C=C/C(=O)c2ccccc2N)c1 [GM-90338, (Z)-3-((E)-3-(2-aminophenyl)-3-oxoprop-1-en-1-yl)-N′-hydroxy Benzimidamide]	44.7%	10.5%	42.8%	31.9%	11.1%	–	–	stronger inhibitory effect	–
Nc1ccccc1-c1cc(-c2cccc(C(F)(F)F)c2)on1 [GM-90340, 2-(5-(3-(trifluoromethyl)phenyl)isoxazol-3-yl)aniline]	88.7%	80.2%	92.9%	89.3%	76.1%	–	–	–	–
Cc1ccccc1-n1c(Cn2cnc3c(N)ncnc32)nc2cccc(C)c2c1=O [IC87114, reference compound]	–	–	–	–	–	–	–	–	inhibited
